From US10537558B2 (Bantam Pharmaceutical, LLC, priority 2015, dated 2020)

The compounds below were run on BJAB cells (assay: BJAB cell proliferation (Cell Titer Glo)). Details: Homo sapiens, read-out: EC50.
Type: cell-based
Summary of the method: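 BJAB cells exposed to serially diluted compounds (0.1% DMSO final) for about 72 h at 37 °C. Proliferation read by Cell Titer Glo luminescence as percent of untreated controls; EC50 from non-linear regression of dose-response data.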
In the case of `COc1cc(-c2c(C)nn(-c3nc(-c4ccc(C(F)(F)F)cc4)c(SC(C)C)s3)c2C(=O)O)ccc1F` [Compound 238, 4-(4-fluoro-3-methoxyphenyl)-1-(5-(isopropylthio)-4-(4-(trifluoromethyl)phenyl)thiazol-2-yl)-3-methyl-1H-pyrazole-5-carboxylic acid], the EC50 is reported as 1 to 5 µM. `Cc1cc(Cl)cc(C)c1-c1nc(-n2nc(C)c(-c3cccc(F)c3)c2C(=O)O)sc1SC(C)C` [Compound 239, 1-(4-(4-chloro-2,6-dimethylphenyl)-5-(isopropylthio)thiazol-2-yl)-4-(3-fluorophenyl)-3-methyl-1H-pyrazole-5-carboxylic Acid] gave an EC50 of 5 to 10 µM. Work on `Cc1nn(-c2nc(-c3ccc(C(C)(F)F)cc3)c(SC(C)C)s2)c(C(=O)O)c1-c1cccc(F)c1` [Compound 240, 1-(4-(4-(1,1-difluoroethyl)phenyl)-5-(isopropylthio)thiazol-2-yl)-4-(3-fluorophenyl)-3-methyl-1H-pyrazole-5-carboxylic acid] yielded an EC50 of 1 to 5 µM. `Cc1cc(-c2c(C)nn(-c3nc(-c4ccc(C(F)(F)F)cc4)c(SC(C)C)s3)c2C(=O)O)cc(C)c1F` [Compound 241, 4-(4-fluoro-3,5-dimethylphenyl)-1-(5-(isopropylthio)-4-(4-(trifluoromethyl)phenyl)thiazol-2-yl)-3-methyl-1H-pyrazole-5-carboxylic acid] gave an EC50 of less than 1 µM. `Cc1nn(-c2nc(-c3cnc(C(F)(F)F)nc3)c(SC(C)C)s2)c(C(=O)O)c1-c1cccc(F)c1` [Compound 242, 4-(3-fluorophenyl)-1-(5-(isopropylthio)-4-(2-(trifluoromethyl)pyrimidin-5-yl)thiazol-2-yl)-3-methyl-1H-pyrazole-5-carboxylic Acid] gave an EC50 of 5 to 10 µM. For `CCNC(=O)c1cc(-c2nc(-n3nc(C)c(-c4cccc(F)c4)c3C(=O)O)sc2SC(C)C)ccc1Cl` [Compound 243, 1-(4-(4-chloro-3-(ethylcarbamoyl)phenyl)-5-(isopropylthio)thiazol-2-yl)-4-(3-fluorophenyl)-3-methyl-1H-pyrazole-5-carboxylic Acid], the EC50 was greater than 40 µM. For `Cc1nn(-c2nc(-c3ccc(C(F)(F)F)cc3N)c(SC(C)C)s2)c(C(=O)O)c1-c1cccc(F)c1` [Compound 244, 1-(4-(2-amino-4-(trifluoromethyl)phenyl)-5-(isopropylthio)thiazol-2-yl)-4-(3-fluorophenyl)-3-methyl-1H-pyrazole-5-carboxylic Acid], the EC50 was 1 to 5 µM. `Cc1nn(-c2nc(C#Cc3ccc(C(F)(F)F)cc3)c(SC(C)C)s2)c(C(=O)O)c1-c1cccc(F)c1` [Compound 245, 4-(3-fluorophenyl)-1-(5-(isopropylthio)-4-((4-(trifluoromethyl)phenyl)ethynyl)thiazol-2-yl)-3-methyl-1H-pyrazole-5-carboxylic acid] showed an EC50 of 10 to 25 µM. `Cc1nn(-c2nc(-c3ncc(C(F)(F)F)cn3)c(SC(C)C)s2)c(C(=O)O)c1-c1cccc(F)c1` [Compound 246, 4-(3-fluorophenyl)-1-(5-(isopropylthio)-4-(5-(trifluoromethyl)pyrimidin-2-yl)thiazol-2-yl)-3-methyl-1H-pyrazole-5-carboxylic Acid] was tested, and the EC50 was 10 to 25 µM. With `Cc1nn(-c2nc(-c3ccc(C(F)(F)F)cc3)cs2)c(C(=O)O)c1-c1cccc(F)c1` [Compound 247, 4-(3-fluorophenyl)-3-methyl-1-(4-(4-(trifluoromethyl)phenyl)thiazol-2-yl)-1H-pyrazole-5-carboxylic acid] the EC50 was 10 to 25 µM. `COCCN(C)C(=O)c1c(-c2cccc(F)c2)c(C)nn1-c1nc(-c2ccc(C(F)(F)F)cc2)c(SC(C)C)s1` [Compound 248, 4-(3-fluorophenyl)-1-(5-(isopropylthio)-4-(4-(trifluoromethyl)phenyl)thiazol-2-yl)-N-(2-methoxyethyl)-N,3-dimethyl-1H-pyrazole-5-carboxamide] showed an EC50 greater than 20 µM. `Cc1nn(-c2nc(-c3ccc(C(F)(F)F)cc3)c(SC(C)C)s2)c(C(=O)NCCOCCOCCOCCN=[N+]=[N-])c1-c1cccc(F)c1` [Compound 249, N-(2-(2-(2-(2-azidoethoxy)ethoxy)ethoxy)ethyl)-4-(3-fluorophenyl)-1-(5-(isopropylthio)-4-(4-(trifluoromethyl)phenyl)thiazol-2-yl)-3-methyl-1H-pyrazole-5-carboxamide] showed an EC50 greater than 20 µM. Work on `COCCNC(=O)c1c(-c2cccc(F)c2)c(C)nn1-c1nc(-c2ccc(C(F)(F)F)cc2)c(SC(C)C)s1` [Compound 250, 4-(3-fluorophenyl)-1-(5-(isopropylthio)-4-(4-(trifluoromethyl)phenyl)thiazol-2-yl)-N-(2-methoxyethyl)-3-methyl-1H-pyrazole-5-carboxamide] yielded an EC50 of 10 to 25 µM. Compound `CCCS(=O)(=O)NC(=O)c1c(-c2cccc(F)c2)c(C)nn1-c1nc(-c2ccc(C(F)(F)F)cc2)c(SC(C)C)s1` [Compound 251, 4-(3-fluorophenyl)-1-(5-(isopropylthio)-4-(4-(trifluoromethyl)phenyl)thiazol-2-yl)-3-methyl-N-(propylsulfonyl)-1H-pyrazole-5-carboxamide] has an EC50 greater than 20 µM. Compound `Cc1nn(-c2nc(-c3ccccc3C(F)(F)F)c(SC(C)C)s2)c(C(=O)O)c1-c1cccc(F)c1` [Compound 252, 4-(3-fluorophenyl)-1-(5-(isopropylthio)-4-(2-(trifluoromethyl)phenyl)thiazol-2-yl)-3-methyl-1H-pyrazole-5-carboxylic acid] has an EC50 of 10 to 25 µM. `Cc1nn(-c2nc(-c3cccc(C(F)(F)F)c3)c(SC(C)C)s2)c(C(=O)O)c1-c1cccc(F)c1` [Compound 253, 4-(3-fluorophenyl)-1-(5-(isopropylthio)-4-(3-(trifluoromethyl)phenyl)thiazol-2-yl)-3-methyl-1H-pyrazole-5-carboxylic acid] was tested, and the EC50 was 5 to 10 µM. For `Cc1nn(-c2nc(-c3ccc(C(F)(F)F)cc3)c(NC(C)C)s2)c(C(=O)O)c1-c1cccc(F)c1` [Compound 254, 4-(3-fluorophenyl)-1-(5-(isopropylamino)-4-(4-(trifluoromethyl)phenyl)thiazol-2-yl)-3-methyl-1H-pyrazole-5-carboxylic acid], the EC50 was 5 to 10 µM. Work on `Cc1nn(-c2nc(-c3ccc(S(F)(F)(F)(F)F)cc3)c(SC(C)C)s2)c(C(=O)O)c1-c1cccc(F)c1` [Compound 255, 4-(3-fluorophenyl)-1-(5-(isopropylthio)-4-(4-(pentafluoro-λ^6-sulfaneyl)phenyl)thiazol-2-yl)-3-methyl-1H-pyrazole-5-carboxylic acid] yielded an EC50 of less than 1 µM. `CONC(=O)c1c(-c2cccc(F)c2)c(C)nn1-c1nc(-c2ccc(C(F)(F)F)cc2)c(SC(C)C)s1` [Compound 256, 4-(3-fluorophenyl)-1-(5-(isopropylthio)-4-(4-(trifluoromethyl)phenyl)thiazol-2-yl)-N-methoxy-3-methyl-1H-pyrazole-5-carboxamide] showed an EC50 of 10 to 25 µM. `Cc1nn(-c2nc(-c3ccc(CC(F)(F)F)cc3)c(SC(C)C)s2)c(C(=O)O)c1-c1cccc(F)c1` [Compound 257, 4-(3-fluorophenyl)-1-(5-(isopropylthio)-4-(4-(2,2,2-trifluoroethyl)phenyl)thiazol-2-yl)-3-methyl-1H-pyrazole-5-carboxylic acid] gave an EC50 of 1 to 5 µM. With `Cc1nn(-c2nc(-c3ccc(C(F)(F)F)nc3)c(SC(C)C)s2)c(C(=O)O)c1-c1cccc(F)c1` [Compound 258, 4-(3-fluorophenyl)-1-(5-(isopropylthio)-4-(6-(trifluoromethyl)pyridin-3-yl)thiazol-2-yl)-3-methyl-1H-pyrazole-5-carboxylic acid] the EC50 was 1 to 5 µM. In the case of `Cc1nn(-c2nc(-c3cnn(CC(F)(F)F)c3)c(SC(C)C)s2)c(C(=O)O)c1-c1cccc(F)c1` [Compound 259, 4-(3-fluorophenyl)-1-(5-(isopropylthio)-4-(1-(2,2,2-trifluoroethyl)-1H-pyrazol-4-yl)thiazol-2-yl)-3-methyl-1H-pyrazole-5-carboxylic acid], the EC50 is reported as 10 to 25 µM.
